From patent US5677297A, “Benzazepine-, benzoxazepine- and benzothiazepine-n-acetic acid derivatives, process for their preparation and pharmaceutical compositions containing them” (Solvay Pharmaceuticals GmbH, priority 1995, dated 1997)

How the values were obtained:
[1] = target: T1, endothelin-converting enzyme (ECE) (Homo sapiens, UniProt P42892); assay: In vitro investigation of the ECE-inhibitory effect (recombinant human ECE in CHO cell membrane fraction); format: biochemical; conditions: 24 μM synthetic peptide substrate, pH 7.0, 37° C., 60 min
T1 construct: expressed in transfected cells; host or cells: CHO cells (Chinese hamster ovary), membrane fraction
T1 sequence (P42892 1-770): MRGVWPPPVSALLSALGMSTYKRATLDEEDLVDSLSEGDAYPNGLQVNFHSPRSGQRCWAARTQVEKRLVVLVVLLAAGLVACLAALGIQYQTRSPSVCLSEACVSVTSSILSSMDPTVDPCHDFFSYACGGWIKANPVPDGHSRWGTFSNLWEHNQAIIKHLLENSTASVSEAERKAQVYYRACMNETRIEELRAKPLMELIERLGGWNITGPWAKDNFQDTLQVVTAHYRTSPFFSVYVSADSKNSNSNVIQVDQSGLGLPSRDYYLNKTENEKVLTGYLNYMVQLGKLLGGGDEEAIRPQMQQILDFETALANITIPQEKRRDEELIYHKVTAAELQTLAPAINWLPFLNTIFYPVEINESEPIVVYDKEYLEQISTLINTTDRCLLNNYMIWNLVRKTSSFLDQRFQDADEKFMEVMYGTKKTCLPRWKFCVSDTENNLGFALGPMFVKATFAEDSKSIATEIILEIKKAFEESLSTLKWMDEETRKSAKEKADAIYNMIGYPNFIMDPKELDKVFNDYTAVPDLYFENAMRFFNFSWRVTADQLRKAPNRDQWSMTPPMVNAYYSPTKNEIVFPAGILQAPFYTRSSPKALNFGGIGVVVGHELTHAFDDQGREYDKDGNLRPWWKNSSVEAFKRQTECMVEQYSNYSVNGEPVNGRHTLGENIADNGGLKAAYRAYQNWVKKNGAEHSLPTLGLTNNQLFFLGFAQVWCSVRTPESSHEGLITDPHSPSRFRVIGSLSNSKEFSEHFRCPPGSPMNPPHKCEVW
Protocol: 3. In vitro investigations of the ECE-inhibitory effect of the substances.
The IC50 of the substances was determined as a measure of their inhibitory activity. The IC50 of a test substance with enzyme-inhibiting activity is the concentration of the test substance at which 50% of the enzymatic activity of ECE is inhibited.
Preparation of the ECE-containing endothelial cell membrane fraction.
Egg cells from the Chinese hamster (Chinese hamster ovary cells, hereinafter CHO cells) in which there was recombinant expression of human ECE [see Schmidt et al., Federation of European Biochemical Societies Letters 356 238-43 (1994)] were lysed, and the cell membranes were removed by centrifugation at 10,000×g for 10 min. The cell membranes were washed by resuspension and repeated centrifugation three times. The ECE-containing cell membrane fraction was resuspended in 100 mM tris/HCl buffer (tris(hydroxymethyl)aminomethane/HCl, pH 7.0, containing 250 mM NaCl) and stored frozen at -70° C. before the enzyme test.
To carry out the test, respective 100 μl samples of various incubation solutions each containing 5 μg protein from an ECE-containing preparation of endothelial cell membranes and different amounts of test substance and 24 μM substrate (synthetic peptide: H2 N-Asp-Ile-Ala-Trp-Phe-Asn-Thr-Pro-Glu-His-Val-Val-Pro-Tyr-Gly-Leu-Gly-COOH) (SEQ ID NO:1) and 100 mM tris buffer (tris(hydroxymethyl)aminomethane/HCl, pH 7.0, containing 250 mM sodium chloride) were prepared. […]
The incubation solutions were preincubated at 37° C. for 15 min before the substrate was added. […] The hydrolysis products H2N-Asp-Ile-Ala-Trp-COOH (SEQ ID NO:2) and H2 N-Phe-Asn-Thr-Pro-Glu-His-Val-Val-Pro-Tyr-Gly-Leu-Gly-COOH (SEQ ID NO:3) formed from the substrate by the enzymatic reaction were determined with the aid of high-pressure liquid chromatography (HPLC). […] The IC50 was calculated for each test substance in a known manner from the concentrations of hydrolysis products measured in the various samples.

[2] = target: neutral endopeptidase (NEP), purified NEP (E.C.3.4.24.11) (Homo sapiens, UniProt P08473); assay: In vitro investigation of the NEP-inhibitory effect (hydrolytic degradation of met-enkephalin); format: biochemical; conditions: substrate met-enkephalin, 37° C., pH 7.4
Sequence of neutral endopeptidase (NEP), purified NEP (E.C.3.4.24.11) (P08473 whole entry): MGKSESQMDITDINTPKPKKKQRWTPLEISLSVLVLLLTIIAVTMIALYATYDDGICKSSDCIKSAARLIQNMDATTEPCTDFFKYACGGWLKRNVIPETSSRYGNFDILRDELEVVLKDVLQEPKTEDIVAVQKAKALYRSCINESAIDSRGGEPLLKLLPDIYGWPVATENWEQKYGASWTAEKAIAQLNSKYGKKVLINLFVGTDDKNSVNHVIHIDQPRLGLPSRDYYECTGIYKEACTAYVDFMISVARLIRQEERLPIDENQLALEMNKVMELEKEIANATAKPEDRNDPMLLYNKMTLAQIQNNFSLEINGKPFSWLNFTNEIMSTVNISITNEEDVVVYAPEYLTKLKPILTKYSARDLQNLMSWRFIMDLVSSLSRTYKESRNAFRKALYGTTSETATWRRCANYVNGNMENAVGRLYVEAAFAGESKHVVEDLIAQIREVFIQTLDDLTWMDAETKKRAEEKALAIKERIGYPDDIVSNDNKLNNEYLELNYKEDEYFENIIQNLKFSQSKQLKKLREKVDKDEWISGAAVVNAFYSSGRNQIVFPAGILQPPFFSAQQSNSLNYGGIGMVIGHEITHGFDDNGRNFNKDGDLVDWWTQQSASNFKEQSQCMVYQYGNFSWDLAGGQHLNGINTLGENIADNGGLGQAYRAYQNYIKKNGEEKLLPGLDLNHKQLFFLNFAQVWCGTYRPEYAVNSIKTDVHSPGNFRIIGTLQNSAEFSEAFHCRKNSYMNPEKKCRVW
Protocol: 2. In vitro investigation of the NEP-inhibitory effect of the substances and determination of the affinity of the substance molecules for the enzyme molecule. […] The Ki (inhibitor constant) of each substance was determined as a measure of its inhibitory activity. The Ki of a test substance with enzyme-inhibiting activity is the dissociation constant for the enzyme/test substance complex or the (enzyme/substrate)--test substance complex and has units of concentration.
To carry out the test, respective 100 μl samples of various incubation solutions containing 10 ng of purified NEP (E.C.3.4.24.11) and in each case different amounts of test substance and of substrate (met-enkephalin)and 50 mM tris buffer (=tris(hydroxymethyl)aminomethane/HCl, pH 7.4) were prepared.
For each test substance, 24 different incubation solutions were prepared with 3 different test substance concentrations respectively combined with met-enkephalin contents of 2, 5, 7, 10, 12, 15, 40 and 100 μm.
In each test, two types of control incubation solutions were also processed, on the one hand enzyme controls which contain no test substance, and on the other hand substrate controls which contain neither enzyme nor test substance.
The incubation solutions were incubated in a shaking water bath at 37° C. for 45 minutes. The enzyme reaction was started after 15 minutes by adding the substrate (metenkephalin) and was stopped at the end of the incubation time by heating at 95° C. for 5 minutes. The stopped incubation solution was then centrifuged at 12,000×g for 3 minutes, and the concentrations of unreacted substrate and of hydrolysis products formed by the enzymatic reaction were determined in the supernatant. For this purpose, samples of each of the respective supernatants were fractionated by HPLC (high-pressure liquid chromatography) on hydrophobized silica gel, and the products of the enzymatic reaction and unreacted substrate were determined by photometry at a wavelength of 205 nm. The HPLC separation was carried out using a column (4.6×250 mm) which contains Encapharm™ 100 RP18 having an average particle size of 5 μm as reversed phase separation material. The solvent flow rate was 1.4 ml/min, and the column was warmed to 40° C. Mobile phase A was 5 mM H3 PO4, pH 2.5, and mobile phase B was acetonitrile +1% 5 mM H3 PO4, pH 2.5.
The Ki for each test substance was calculated in a known manner from the concentrations of hydrolysis products and unreacted substrate measured in the various samples. […] The example numbers indicated in Table B refer to the following preparation examples.

With `O=C(O)CN1C(=O)[C@@H](NC(=O)C2(C[C@@H](CCc3ccccc3)C(=O)O)CCCC2)CCc2ccccc21` [Example 8, (3S,2'R)-3-[1-(2'-Carboxy-4'-phenylbutyl)cyclopentane-1-carbonylamino]-2,3,4,5-tetrahydro-2-oxo-1H-1-benzazepine-1-acetic acid] the IC50 [1] was 1.29 µM and the Ki [2] was 0.0004 µM.
